The text below walks through data of patent US20130040845A1, “METHOD FOR SCREENING RECEPTORS/LIGANDS INTERACTIONS” (IMMUNE DISEASE INSTITUTE, INC., priority 2010, published 2013).

The Kd is the equilibrium constant for the complex coming apart.

One assay has as its target T1, RARγ receptor (Homo sapiens, UniProt P13631).
T1 sequence (P13631 1-454): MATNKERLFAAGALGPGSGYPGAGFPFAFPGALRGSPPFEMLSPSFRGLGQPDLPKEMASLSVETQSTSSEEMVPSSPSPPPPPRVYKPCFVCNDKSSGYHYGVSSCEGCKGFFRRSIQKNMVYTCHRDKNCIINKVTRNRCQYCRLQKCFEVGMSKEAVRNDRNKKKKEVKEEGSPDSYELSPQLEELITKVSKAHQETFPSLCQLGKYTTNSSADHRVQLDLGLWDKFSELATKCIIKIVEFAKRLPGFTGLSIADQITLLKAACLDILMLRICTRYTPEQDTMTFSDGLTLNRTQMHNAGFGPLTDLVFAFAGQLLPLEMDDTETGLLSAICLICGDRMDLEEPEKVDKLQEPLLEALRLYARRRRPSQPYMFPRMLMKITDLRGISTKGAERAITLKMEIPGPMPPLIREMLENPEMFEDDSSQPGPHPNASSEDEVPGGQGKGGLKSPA
The settings on record: cited from earlier work.

The target in another assay is T2, RARβ receptor (Homo sapiens, UniProt P10826).
T2 sequence (P10826 1-455): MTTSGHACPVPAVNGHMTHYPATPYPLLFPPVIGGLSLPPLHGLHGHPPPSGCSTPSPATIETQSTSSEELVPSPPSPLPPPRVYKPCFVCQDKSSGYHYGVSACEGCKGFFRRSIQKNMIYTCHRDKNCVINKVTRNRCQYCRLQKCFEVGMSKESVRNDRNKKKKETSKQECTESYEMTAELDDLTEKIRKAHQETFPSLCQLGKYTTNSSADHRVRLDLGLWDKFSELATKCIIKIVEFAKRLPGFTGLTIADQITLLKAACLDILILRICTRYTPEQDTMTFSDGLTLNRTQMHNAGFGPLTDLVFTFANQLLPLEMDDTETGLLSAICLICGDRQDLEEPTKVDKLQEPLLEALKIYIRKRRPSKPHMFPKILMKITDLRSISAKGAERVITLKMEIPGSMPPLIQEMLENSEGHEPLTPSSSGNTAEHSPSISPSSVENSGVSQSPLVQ
The conditions noted are these: cited from earlier work.

A further assay deals with T3, RARα receptor (Homo sapiens, UniProt P10276).
T3 sequence (P10276 1-462): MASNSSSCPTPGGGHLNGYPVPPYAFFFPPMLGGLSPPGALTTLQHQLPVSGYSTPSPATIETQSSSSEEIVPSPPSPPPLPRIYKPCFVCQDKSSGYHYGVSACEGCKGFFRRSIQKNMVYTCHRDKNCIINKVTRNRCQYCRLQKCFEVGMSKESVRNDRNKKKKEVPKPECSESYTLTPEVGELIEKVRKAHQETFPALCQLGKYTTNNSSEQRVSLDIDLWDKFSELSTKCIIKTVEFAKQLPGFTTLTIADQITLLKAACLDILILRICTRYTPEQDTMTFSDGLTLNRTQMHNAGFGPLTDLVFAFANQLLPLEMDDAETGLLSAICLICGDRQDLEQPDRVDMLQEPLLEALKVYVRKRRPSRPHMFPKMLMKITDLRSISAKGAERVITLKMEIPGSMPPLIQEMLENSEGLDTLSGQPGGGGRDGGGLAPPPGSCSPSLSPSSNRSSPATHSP
The settings on record: cited from earlier work.

For assay [1], the target named is T4, VWF A1 domain/GPIbα interaction (Homo sapiens, UniProt P04275+P07359).
T4 construct: human VWF A1 domain (Ile1262 to Pro1466 with pre-pro-VWF numbering); human platelet GPIbα (His1 to Arg290) were PCR-amplified; made in house; host or cells: HEK293T
Description: Single-molecule optical tweezer force-extension (pulling) assay on covalently tethered A1-GPIbα chimeric fusion polypeptide. In kind it is binding. The settings on record: presence vs absence of activator, fixed pulling rate (FIG. 5D-5F). From the text: In the example described herein, the inventors tethered this single polypeptide to the solid surfaces of two different microspheres using double-stranded DNA (dsDNA) handles. One end of the chimeric polypeptide was tethered to a first dsDNA handle and the other end of the polypeptide was tethered to a second dsDNA handle. The polypeptide was coupled to the dsDNA handles via S—S-bond or disulfide bridges. The free ends of the dsDNA were then linked to digoxigenin or biotin (see FIGS. 3A, 4B & 4C, 10). The dsDNA coupled A1/GPIbα polypeptide was then mixed with beads that were coated with either anti-digoxigenin or streptavidin. The inventors then manipulated the beads with a pipette and a focus laser beam from an optical tweezer to stretch out or extend the A1/GPIbα polypeptide in order to study the minute forces, in pico Newtons (pN), required to dissociate the VWF A1 domain/GPIbα interaction. […] In addition, the inventors measured the extensions of the VWF A1 domain/GPIbα polypeptide that are required to keep the extension force constant. […]
In the example, the inventors monitored the forces applied to the A1/GPIbα polypeptide that is required to extend or stretch out the polypeptide from a ligand-bound state to a ligand-unbonud state with an optical tweezer (see FIG. 8 for the ligand bound and non-ligand bound state of the A1/GPIbα polypeptide). […]

T4 sequence (P04275 1262-1466): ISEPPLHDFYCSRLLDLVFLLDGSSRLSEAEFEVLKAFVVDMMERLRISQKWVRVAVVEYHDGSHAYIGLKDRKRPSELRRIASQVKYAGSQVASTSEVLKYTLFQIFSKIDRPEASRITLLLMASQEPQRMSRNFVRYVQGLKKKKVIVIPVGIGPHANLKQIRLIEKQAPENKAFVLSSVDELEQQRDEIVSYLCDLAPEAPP
T4 sequence (P07359 17-306): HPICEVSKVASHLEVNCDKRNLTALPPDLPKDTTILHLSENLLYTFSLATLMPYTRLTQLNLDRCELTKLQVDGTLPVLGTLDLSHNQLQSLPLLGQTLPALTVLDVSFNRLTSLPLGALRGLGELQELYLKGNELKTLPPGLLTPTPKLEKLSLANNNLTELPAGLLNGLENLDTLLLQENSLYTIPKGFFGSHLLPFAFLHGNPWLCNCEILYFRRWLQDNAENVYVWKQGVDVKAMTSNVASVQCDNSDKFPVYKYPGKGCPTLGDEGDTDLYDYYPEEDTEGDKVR

In the case of `O=C(O)c1ccc(-c2ccc3cc(O)c(C45CC6CC(CC(C6)C4)C5)cc3c2)cc1` [CD 1530, 4-(6-Hydroxy-7-tricyclo[3.3.1.13,7]dec-1-yl-2-naphthalenyl) benzoic acid], the Kd on RARγ receptor is 150 nM; at RARβ receptor, 1500 nM; on RARα receptor, 2750 nM. Consider botrocetin, for which, in assay [1], the “average dissociative/unbinding force for the A1/GPIbα interaction” value is “increased the average dissociative/unbinding force”.

For ristocetin, the “average dissociative/unbinding force for the A1/GPIbα interaction” value in assay [1] is recorded as “increased the average dissociative/unbinding force”.
